One assay concerns the target T1, Endothelin-1 receptor (Homo sapiens, UniProt P25101).
T1 sequence (P25101 whole entry): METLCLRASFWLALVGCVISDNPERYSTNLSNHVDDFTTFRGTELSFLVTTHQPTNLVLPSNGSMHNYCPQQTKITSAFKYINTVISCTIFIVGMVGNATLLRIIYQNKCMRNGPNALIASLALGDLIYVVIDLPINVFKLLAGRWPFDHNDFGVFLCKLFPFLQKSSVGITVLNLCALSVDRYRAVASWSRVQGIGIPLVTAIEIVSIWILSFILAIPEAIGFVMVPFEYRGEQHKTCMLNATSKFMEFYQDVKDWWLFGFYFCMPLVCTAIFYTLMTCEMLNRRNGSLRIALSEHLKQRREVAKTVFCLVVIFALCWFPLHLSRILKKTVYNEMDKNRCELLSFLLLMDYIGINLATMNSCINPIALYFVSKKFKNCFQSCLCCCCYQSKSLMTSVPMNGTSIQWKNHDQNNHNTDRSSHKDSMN
Description: In vitro binding affinity in a radioligand binding experiment by competition with [125I]-labeled endothelin-1 for ETA receptor.

For assay [1], the target named is T2, Endothelin receptor type B (Homo sapiens, UniProt P24530).
T2 sequence (P24530 whole entry): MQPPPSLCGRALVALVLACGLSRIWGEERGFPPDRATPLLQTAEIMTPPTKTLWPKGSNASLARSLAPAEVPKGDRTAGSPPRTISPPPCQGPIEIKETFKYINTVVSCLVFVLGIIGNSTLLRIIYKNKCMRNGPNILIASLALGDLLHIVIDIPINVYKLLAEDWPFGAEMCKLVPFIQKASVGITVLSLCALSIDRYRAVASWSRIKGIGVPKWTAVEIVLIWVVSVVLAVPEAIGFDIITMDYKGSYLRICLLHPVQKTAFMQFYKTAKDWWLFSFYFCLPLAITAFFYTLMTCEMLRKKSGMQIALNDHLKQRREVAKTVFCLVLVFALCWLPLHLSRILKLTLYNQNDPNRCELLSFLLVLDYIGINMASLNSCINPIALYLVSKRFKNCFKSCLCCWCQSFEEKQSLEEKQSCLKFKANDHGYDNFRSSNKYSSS
In words: In vitro binding affinity in a radioligand binding experiment by competition with [125I]-labeled endothelin-1 for ETB receptor.

In assay [2] the target is T3, Endothelin receptor type B (Homo sapiens) (UniProt P24530).
T3 sequence (whole entry): T2 sequence (P24530 whole entry)
Description: Percent inhibition against ETB receptor binding at a concentration of 100 uM.

In general, IC50 refers to the concentration that inhibits the measured activity by half. For orientation: inhibition means the relative decrease from the control value, in per cent.

In the case of `Cc1noc(NS(=O)(=O)c2ccsc2C(=O)Oc2ccc3c(c2)OCO3)c1Br`, the IC50 came to 0.0089 µM on Endothelin-1 receptor and 5.74 µM in assay [1].

Regarding `Cc1cccc(OC(=O)c2sccc2S(=O)(=O)Nc2onc(C)c2Br)c1`, the IC50 in assay [1] is > 100 µM. The inhibition in assay [2] is < 50%.

As to `Cc1noc(NS(=O)(=O)c2ccsc2C(=O)Oc2ccc3c(c2)OCO3)c1Cl`, the IC50 was determined as 0.0083 µM on Endothelin-1 receptor and 7.94 µM in assay [1].

Regarding `Cc1noc(NS(=O)(=O)c2ccsc2C(=O)O)c1Cl`, the IC50 on Endothelin-1 receptor is 1.06 µM; in assay [1], > 100 µM. The inhibition in assay [2] was < 50%.

With `Cc1ccc(OC(=O)c2sccc2S(=O)(=O)Nc2onc(C)c2C)c(C)c1`, the IC50 on Endothelin-1 receptor was 0.27 µM; in assay [1], > 100 µM. Besides, the inhibition in assay [2] is < 50%.

Consider `COC(=O)c1sccc1S(=O)(=O)Nc1onc(C)c1C`, for which the IC50 at Endothelin-1 receptor is 3.47 µM; in assay [1] it was > 100 µM. Besides, in assay [2], the inhibition is < 50%.

With `Cc1noc(NS(=O)(=O)c2ccsc2C(=O)Nc2ccccc2)c1C`, the IC50 is 0.55 µM at Endothelin-1 receptor and > 100 µM in assay [1]. Moreover, the inhibition in assay [2] is < 50%.

With `Cc1ccc(OC(=O)c2sccc2S(=O)(=O)Nc2onc(C)c2C)cc1`, the values for the IC50 (at Endothelin-1 receptor; in assay [1]) were 2.52 µM and > 100 µM, respectively. Besides, in assay [2], the inhibition was < 50%.

For `Cc1noc(NS(=O)(=O)c2ccsc2C(=O)O)c1Br`, the values for the IC50 (at Endothelin-1 receptor; in assay [1]) were 10.2 µM and > 100 µM, respectively. The inhibition in assay [2] was < 50%.

Consider `COC(=O)c1sccc1S(=O)(=O)Nc1onc(C)c1Br`, for which the IC50 on Endothelin-1 receptor was 0.74 µM; in assay [1] it was > 100 µM. In addition, the inhibition in assay [2] was < 50%.

For `COC(=O)c1sccc1S(=O)(=O)Nc1onc(C)c1Cl`, the IC50 on Endothelin-1 receptor is 1.09 µM; in assay [1], > 100 µM. Besides, the inhibition in assay [2] was < 50%.

With `Cc1noc(NS(=O)(=O)c2ccsc2C(=O)Oc2ccccc2)c1Cl`, in assay [1], the IC50 is > 100 µM. The inhibition in assay [2] is < 50%.

Turning to `Cc1ccccc1OC(=O)c1sccc1S(=O)(=O)Nc1onc(C)c1Br`, the IC50 in assay [1] was > 100 µM. For the same compound, in assay [2], the inhibition is < 50%.

As to `Cc1noc(NS(=O)(=O)c2ccsc2C(=O)Nc2ccccc2)c1Cl`, the IC50 on Endothelin-1 receptor was 0.148 µM; in assay [1], > 100 µM. In addition, the inhibition in assay [2] was < 50%.

As to `Cc1ccc(OC(=O)c2sccc2S(=O)(=O)Nc2onc(C)c2Br)cc1`, the IC50 at Endothelin-1 receptor turned out to be 0.0093 µM; in assay [1], 9.21 µM.

Regarding `Cc1noc(NS(=O)(=O)c2ccsc2C(=O)O)c1C`, the half-maximal inhibitory concentration (IC50) on Endothelin-1 receptor is 6.06 µM; in assay [1], > 100 µM. Besides, in assay [2], the inhibition was < 50%.

On to `Cc1noc(NS(=O)(=O)c2ccsc2C(=O)Oc2ccc3c(c2)OCO3)c1C`, for which the IC50 was 6.14 µM on Endothelin-1 receptor and 48.7 µM in assay [1].

As to `Cc1noc(NS(=O)(=O)c2ccsc2C(=O)Oc2ccccc2)c1Br`, the IC50 in assay [1] is > 100 µM. Further, the inhibition in assay [2] was < 50%.

Regarding `Cc1ccc(OC(=O)c2sccc2S(=O)(=O)Nc2onc(C)c2Cl)cc1`, the IC50 in assay [1] is > 100 µM. Further, in assay [2], the inhibition was < 50%.

Take `Cc1noc(NS(=O)(=O)c2ccsc2C(=O)Oc2ccccc2)c1C`: the values for the IC50 (at Endothelin-1 receptor; in assay [1]) were 4.12 µM and > 100 µM, respectively. In assay [2], the inhibition was < 50%.

Values taken from ChEMBL document CHEMBL1130505, “2-Aryloxycarbonylthiophene-3-sulfonamides: Highly potent and etA selective endothelin receptor antagonists” (Bioorg Med Chem Lett, 1997).
